# Data published in the supplement of paper PMC11208160.
# Experiment: recombinant UMI read abundance after kanamycin selection (control-corrected) (log10(CPM+1)); higher = more efficient recombination; extreme values may be limits of the assay; sequences stand for … in AGTGCAGAGAAAATCGGCCAGTTTTCTCTGCCTGCAGTCCGCATGCCGTGGGACCCCTTGGGTTCTAACCTGTTGCCTAGATTTATGCAGCGGACTGCCTTTCTCCCAAAGTGATAAACCGG…AGGTTGGTTTCACT; site = the 11-nt donor
# Protocol: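 Pooled E. coli donor-specificity screen for the IS621 bridge recombinase. Each library member carries a reprogrammed 11-nt donor and a full-length LE bridge RNA expressed in cis from the natural promoter, with a paired donor-binding loop (8-nt LDG + 4-nt RDG) and a target-binding loop fixed to T5. It is co-electroporated with a T5 target plasmid; recombinase is induced with 0.07 mM IPTG and recombinants are selected on kanamycin. UMIs are counted as CPM, averaged over two biological replicates and corrected by the unselected control. Molecule = full bridge RNA written as DNA, built from the T5 scaffold: LDG = donor specificity nt 1-8, RDG = reverse complement of nt 8-11.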
# 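Also: IS621 bridge recombinase in Escherichia coli cells against a fixed T5 target plasmid.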
row,Sequence,recombinant UMI read abundance (log10)
1,AAAAGGCCATGGACCGGTTTTCCCGGTAATCCGTATTTGAC (site AAAAGGCCTGT),1.38
2,AAAAGGCCATGGACCGGTTTTCCCGGTAATCCGTATTTGAC (site ACAAGGCCTGT),0
3,AAAAGGCCATGGACCGGTTTTCCCGGTAATCCGTATTTGAC (site AGAAGGCCTGT),0
4,AAAAGGCCATGGACCGGTTTTCCCGGTAATCCGTATTTGAC (site ATAAGGCCTGT),0
5,AAAAGTACATGGACCGGTTTTCCCGGTAATCCGTATTTGAT (site AAAAGTACTAT),1.62
6,AAAATACCATGGACCGGTTTTCCCGGTAATCCGTATTTGAC (site AAAATACCTGT),0
7,AAACAGACATGGACCGGTTTTCCCGGTAATCCGTATTTGAC (site AAACAGACTGT),2.57
8,AAACAGTCATGGACCGGTTTTCCCGGTAATCCGTATTTGCT (site AAACAGTCTAG),2.98
9,AAACATGCATGGACCGGTTTTCCCGGTAATCCGTATTTGAA (site AAACATGCTTT),2.15
10,AAACGCACATGGACCGGTTTTCCCGGTAATCCGTATTTGTG (site AAACGCACTCA),0.245
11,AAACGGACATGGACCGGTTTTCCCGGTAATCCGTATTTGTA (site AAACGGACTTA),1.84
12,AAACTAACATGGACCGGTTTTCCCGGTAATCCGTATTTGCA (site AAACTAACTTG),2.27
13,AAACTAACATGGACCGGTTTTCCCGGTAATCCGTATTTGCG (site AAACTAACTCG),2.09
14,AAAGAATCATGGACCGGTTTTCCCGGTAATCCGTATTTGCA (site AAAGAATCTTG),2.66
15,AAAGAATCATGGACCGGTTTTCCCGGTAATCCGTATTTGCA (site ACAGTATCTTG),0.902
16,AAAGATACATGGACCGGTTTTCCCGGTAATCCGTATTTGTT (site AAAGATACTAA),2.21
17,AAAGATTCATGGACCGGTTTTCCCGGTAATCCGTATTTGTT (site AAAGATTCTAA),2.82
18,AAAGATTCATGGACCGGTTTTCCCGGTAATCCGTATTTGTT (site CAAGATTCTAA),2.12
19,AAAGATTCATGGACCGGTTTTCCCGGTAATCCGTATTTGTT (site GAAGATTCTAA),0.233
20,AAAGATTCATGGACCGGTTTTCCCGGTAATCCGTATTTGTT (site TAAGATTCTAA),2.48
21,AAAGTATCATGGACCGGTTTTCCCGGTAATCCGTATTTGGA (site AAAGTATCTTC),2.45
22,AAAGTATCATGGACCGGTTTTCCCGGTAATCCGTATTTGGA (site ACAGTATCTTG),0

row,Sequence,recombinant UMI read abundance (log10)
1,AAATAGGCATGGACCGGTTTTCCCGGTAATCCGTATTTGCC (site AAATAGGCTGG),1.07
2,AAATATACATGGACCGGTTTTCCCGGTAATCCGTATTTGAC (site AAATATACTGT),2.52
3,AACAACCCATGGACCGGTTTTCCCGGTAATCCGTATTTGAA (site AACAACCCTTT),0.192
4,AACAAGTCATGGACCGGTTTTCCCGGTAATCCGTATTTGAC (site AACAAGTCTGT),1.86
5,AACAATACATGGACCGGTTTTCCCGGTAATCCGTATTTGTC (site AACAATACTGA),1.64
6,AACAGTGCATGGACCGGTTTTCCCGGTAATCCGTATTTGTC (site AACAGTGCTGA),2.39
7,AACCATCCATGGACCGGTTTTCCCGGTAATCCGTATTTGAT (site AACCATCCTAT),0.499
8,AACCATCCATGGACCGGTTTTCCCGGTAATCCGTATTTGAT (site AACCCTCCTAT),0.0146
9,AACCATCCATGGACCGGTTTTCCCGGTAATCCGTATTTGAT (site AACCGTCCTAT),0.00892
10,AACCATCCATGGACCGGTTTTCCCGGTAATCCGTATTTGAT (site AACCTTCCTAT),0.431
11,AACCCCGCATGGACCGGTTTTCCCGGTAATCCGTATTTGAC (site AACCCCGCTGT),2.32
12,AACCGAGCATGGACCGGTTTTCCCGGTAATCCGTATTTGTT (site AACCGAGCTAA),0.146
13,AACCGTTCATGGACCGGTTTTCCCGGTAATCCGTATTTGAT (site AACCGTACTAT),0.00732
14,AACCGTTCATGGACCGGTTTTCCCGGTAATCCGTATTTGAT (site AACCGTCCTAT),0.012
15,AACCGTTCATGGACCGGTTTTCCCGGTAATCCGTATTTGAT (site AACCGTGCTAT),0.0146
16,AACCGTTCATGGACCGGTTTTCCCGGTAATCCGTATTTGAT (site AACCGTTCTAT),0.348
17,AACCTTTCATGGACCGGTTTTCCCGGTAATCCGTATTTGAC (site AACCTTTCTGT),0
18,AACCTTTCATGGACCGGTTTTCCCGGTAATCCGTATTTGAC (site ACCCTTTCTGT),0
19,AACCTTTCATGGACCGGTTTTCCCGGTAATCCGTATTTGAC (site AGCCTTTCTGT),0
20,AACCTTTCATGGACCGGTTTTCCCGGTAATCCGTATTTGAC (site ATCCTTTCTGT),0
21,AACGACCCATGGACCGGTTTTCCCGGTAATCCGTATTTGAG (site AACGACCCTCT),0.029
22,AACGATCCATGGACCGGTTTTCCCGGTAATCCGTATTTGTA (site AACGATCCTTA),1.42

row,Sequence,recombinant UMI read abundance (log10)
1,AACGCCGCATGGACCGGTTTTCCCGGTAATCCGTATTTGAG (site AACGCCGCTCT),0.916
2,AACGGGACATGGACCGGTTTTCCCGGTAATCCGTATTTGAT (site AACGGGACTAT),2.44
3,AACTATTCATGGACCGGTTTTCCCGGTAATCCGTATTTGTA (site AACTATTCTTA),2.2
4,AACTCAGCATGGACCGGTTTTCCCGGTAATCCGTATTTGGG (site AACTCAGCTCC),0.0924
5,AACTCAGCATGGACCGGTTTTCCCGGTAATCCGTATTTGGG (site ACCTCAGCTCC),0.0111
6,AACTCAGCATGGACCGGTTTTCCCGGTAATCCGTATTTGGG (site AGCTCAGCTCC),0.00784
7,AACTCAGCATGGACCGGTTTTCCCGGTAATCCGTATTTGGG (site ATCTCAGCTCC),0.192
8,AACTGCGCATGGACCGGTTTTCCCGGTAATCCGTATTTGAT (site AACTGCGCTAT),1.34
9,AACTGCGCATGGACCGGTTTTCCCGGTAATCCGTATTTGTG (site AACTGCGCTCA),0.435
10,AACTGTCCATGGACCGGTTTTCCCGGTAATCCGTATTTGTG (site AACTGTCCTCA),0.0176
11,AACTTGACATGGACCGGTTTTCCCGGTAATCCGTATTTGCT (site AACTTGACTAG),0.971
12,AACTTGACATGGACCGGTTTTCCCGGTAATCCGTATTTGCT (site CACTTGACTAG),1.12
13,AACTTGACATGGACCGGTTTTCCCGGTAATCCGTATTTGCT (site GACTTGACTAG),0.665
14,AACTTGACATGGACCGGTTTTCCCGGTAATCCGTATTTGCT (site TACTTGACTAG),1.24
15,AAGAAAACATGGACCGGTTTTCCCGGTAATCCGTATTTGGT (site AAGAAAACTAC),1.5
16,AAGAACCCATGGACCGGTTTTCCCGGTAATCCGTATTTGAA (site AAGAACCCTTT),1.5
17,AAGAAGACATGGACCGGTTTTCCCGGTAATCCGTATTTGCC (site AAGAAGACTGG),2.47
18,AAGAAGACATGGACCGGTTTTCCCGGTAATCCGTATTTGCC (site AGGAAGACTTG),0.0155
19,AAGAAGCCATGGACCGGTTTTCCCGGTAATCCGTATTTGAC (site AAGAAGCCTGT),0
20,AAGCACACATGGACCGGTTTTCCCGGTAATCCGTATTTGTT (site AAGCACACTAA),1.8
21,AAGCACGCATGGACCGGTTTTCCCGGTAATCCGTATTTGGA (site AAGCACGCTAC),0.0278
